# Read-outs that look alike come from different tables or passages of the source.
# Assays:
# AIA rats [1] = test: Plasma metabolomics by LC-MS/MS in AIA rats; assay type: in vivo, Sprague-Dawley (SD) rats
# Protocol: (§1) The plasma sample (200 μL) was thawed on ice for 5 min prior to sample preparation and was mixed with 200 μL of 10 mM N-ethylmaleimide (NEM) in PBS buffer solution and 1000 μL of methanol containing internal standard (I.S.) Phe-d5 in 10 ng/ml. This mixture was incubated at −20° C. for 20 min, and then centrifuged at 12000 rpm for 10 min at 4° C. The supernatant was completely dried under nitrogen flow (Pressure Blowing Concentrator, Tokyo Rikakika, Tokyo, Japan) and reconstituted with distilled water.
# LC-MS/MS analysis was performed on A Waters ACQUITY UPLC coupled with a 4000 Q-TRAP mass spectrometer. Chromatographic separation was carried on a Waters X Bridge™ BEH C18 analytical column (2.5 μm, 3.0×100 mm; Waters, Torrance, Calif.) with a mobile phase composed of 0.1% formic acid water (solvent A) and methanol (solvent B) which was running in a gradient program: 0-3.0 min (0%-1% B); 3.0-10.0 min (1-3% B); 10.0-14.0 min (3-50% B); 14.0-18.0 min (50-95% B); 18.0-22.0 min (95-0% B); followed by a 3-min re-equilibration step. The injection volume was 10 μl at 4° C. and flow rate was 0.6 ml/min. Electrospray (ESI) source were used in both positive and negative ion mode. […]
# The normalized data were exported and further processed by PCA and PLS-DA using a multivariate analysis package SIMCA-P software (Umea, Sweden). Model quality was evaluated based on the relevant values of R^2 and Q^2. […]
# [2] = system: MCD diet induced NASH mice; test: MCD diet induced NASH mice: body and liver weight, liver histology, serum and liver biomarkers; assay type: in vivo, C57Bl/6 mice; conditions: for Ballooning (histological score) / Inflammation (histological score) / Steatosis (histological score): MCD diet induced NASH mice, n = 6-8
# Protocol: Male wild-type (WT) mice C57Bl/6 were fed either MCS chow diet (Trophic Animal Feed High-tech Co., Ltd, China 20, #TP 3005GS); MCD diet (Trophic Animal Feed High-tech Co., Ltd, China, #TP 3005G) for 8 weeks. Animals were randomly divided into four groups (n=10): 1) controls, fed a standard control MCS diet; 2) […] fed a high-fat MCD diet; 3) rats fed the MCD diet treated with Silybin (150 mg/kg, oral) and 4) rats fed the MCD diet treated with Silybin (300 mg/kg, oral). Silybin was dissolved with solvent of 35% PEG400: 15% Cremophor EL: 5% ethanol: 45% saline. Body weight was intermittently monitored during the diet-induction period and every two or three days during the intervention period.
# At the end of the 8 weeks, mice were sacrificed under ether anesthesia. The liver were immediately removed and weighed. A large portion of liver was snap-frozen in the liquid N2 with remaining tissue was fixed in 10% buffer formalin, processed and embedded in paraffin for histological examination after H&E staining. For evaluation of steatohepatitis, the level of ALT, AST, TG, and TC were determined according to manufacturer's instructions with commercial kits. Moreover, histological assessment and scoring according to standardized criteria were carried out by a pathologist blinded to the study (Kleiner, D. E., et al., Hepatology, 2005, 41(6): p. 1313-21). The cytokines levels in serum were measured using commercially available ELISA kits including TNF-α, and IL-6 as well as SOD.
# [3] = system: MCD diet induced NASH mice; test: Plasma metabolomics by LC-MS/MS in MCD diet induced NASH mice; assay type: in vivo, C57Bl/6 mice; conditions: Silybin 300 mg/kg, * P < 0.05, ** P < 0.01
# Protocol: as §1
# LC-MS/MS analysis was performed on A Waters ACQUITY UPLC coupled with a 4000 Q-TRAP mass spectrometer. Chromatographic separation was carried on a Waters X Bridge™ BEH C18 analytical column (2.5 μm, 3.0×100 mm; Waters, Torrance, Calif.) with a mobile phase composed of 0.1% formic acid water (solvent A) and methanol (solvent B) which was running in a gradient program: 0-3.0 min (0%-1% B); 3.0-10.0 min (1-3% B); 10.0-14.0 min (3-50% B); 14.0-18.0 min (50-95% B); 18.0-22.0 min (95-0% B); followed by a 3-min re-equilibration step. The injection volume was 10 μl at 4° C. and flow rate was 0.6 ml/min. Electrospray (ESI) source were used in both positive and negative ion mode. The source parameters were set as follows: gas temperature: 450° C.; the ion spray voltage, ±4500 V; ion source gas 1 (nebulizer gas) 40 psi (N2); ion source gas 2 (auxiliary gas), 40 psi (N2); curtain gas: 20 psi. The MS/MS analysis was acquired in targeted MS/MS (MRM) mode with the collision energy ranging from 10 V to 40 V. All UPLC-MS data were obtained by AB Analyst Software (Version 1.6.2). Table 1 lists the 72 metabolites that are identified in the plasma samples from both AIA and MCD-diet induced NASH animal studies. The intensity of each ion was normalized with respect to peak area of I.S. for each chromatogram prior to multivariate statistical analysis.
# The normalized data were exported and further processed by PCA and PLS-DA using a multivariate analysis package SIMCA-P software (Umea, Sweden). Model quality was evaluated based on the relevant values of R^2 and Q^2. Potential markers of interest were extracted from the values of variable importance in the projections (VIP>1), which were constructed from PLS-DA analysis. P values were obtained from Student's t-test (P<0.05). Hierarchical clustering analysis (HCA) was performed using bioinformatics software Multi Experiment Viewer (The Institute of Genomic Research, MA, USA) for visualization and organization of metabolite profiles.
# Plasma samples of MCD-diet model were analyzed by LC-MS/MS for better understanding the functional metabolism in NASH model as well as the mechanism of Silybin treatment. […] OPLS-DA (R^2X=0.877, Q^2=0.749) was also used to identify and rank signature metabolites explaining most of the variance of metabolomes among the control, model and treatment group based on VIP scores and/or P value (FIG. 9). Unsupervised hierarchical clustering of this metabolite set classified NASH vs. control mice with 100% accuracy in both cohorts. A 15-metabolite signature with top-ranked VIP scores (VIP>1.0) separated control, model and Silybin treatment groups (p<0.05) was identified in Table 18 that distinguish each groups.
# AIA rats [4] = conditions: for ESR: day 42, read at 15 min, ± SD
# [5] = MCD diet NASH mice, versus vehicle treated MCD diet model group
# [6] = AIA rats, Silybin 200 mg/kg oral, day 42
compound,measurement,setting,value
COc1cc([C@H]2Oc3cc([C@H]4Oc5cc(O)cc(O)c5C(=O)[C@@H]4O)ccc3O[C@@H]2CO)ccc1O (stereo in doubt) [Silybin],metabolic network (plasma metabolites),AIA rats [1],effectively repair the metabolic network
same,body weight,"[2]; MCD diet NASH mice, Silybin 300 mg/kg",no effect
same,liver/body weight ratio,"[2]; MCD diet NASH mice, Silybin 300 mg/kg, P<0.05",moderate decrease
same,"scores of steatosis, inflammation and ballooning","[2]; MCD diet NASH mice, Silybin treated versus MCD diet group, P<0.01",lower scores
same,cytokines levels,[2]; [5],significantly restored
same,lipid profiles,[2]; [5],significantly restored
same,oxidative stress levels,[2]; [5],significantly restored
same,serum transaminase,[2]; [5],significantly restored
same,Ballooning (histological score),[2]; Silybin 150 mg/kg oral,0.96 ± 0.04
same,Inflammation (histological score),[2]; Silybin 150 mg/kg oral,0.92 ± 0.10
same,Steatosis (histological score),[2]; Silybin 150 mg/kg oral,1.00 ± 0
same,Ballooning (histological score),[2]; Silybin 300 mg/kg oral,0.83 ± 0.09
same,Inflammation (histological score),[2]; Silybin 300 mg/kg oral,0.88 ± 0.12
same,Steatosis (histological score),[2]; Silybin 300 mg/kg oral,0.92 ± 0.13
same,Trend SB300 VS Model: Malondialdehyde (MDA),[3],↓**
same,"Trend SB300 VS Model: 4-(2-aminophenyl)-2,4-dioxobutanoic acid",[3]; plasma,↓*
same,Trend SB300 VS Model: 5-hydroxytryptamine,[3]; plasma,↓**
same,Trend SB300 VS Model: GSH,[3]; plasma,↑*
same,Trend SB300 VS Model: GSH/GSSG,[3]; plasma,↑*
same,Trend SB300 VS Model: GSSG,[3]; plasma,↓*
same,Trend SB300 VS Model: Glycochenodeoxycholic acid(GCDCA),[3]; plasma,↓*
same,Trend SB300 VS Model: L-Kynurenine,[3]; plasma,↑**
same,Trend SB300 VS Model: LPC(16:1),[3]; plasma,↓*
same,Trend SB300 VS Model: LPC(18:0),[3]; plasma,↑*
same,Trend SB300 VS Model: LPC(20:1),[3]; plasma,↑*
same,Trend SB300 VS Model: LPC(22:6),[3]; plasma,↑*
same,Trend SB300 VS Model: N-Phenylacetylglycine,[3]; plasma,↓*
same,Trend SB300 VS Model: Ophthalmic acid,[3]; plasma,↓*
same,Trend SB300 VS Model: Oxaloacetate,[3]; plasma,↑*
same,Trend SB300 VS Model: Proline,[3]; plasma,↓*
same,Trend SB300 VS Model: Trigonelline,[3]; plasma,↑**
same,Trend SB300 VS Model: Uric acid,[3]; plasma,↓**
same,Trend SB300 VS Model: Uridine,[3]; plasma,↓**
same,Trend SB300 VS Model: Ursodeoxycholic acid (UDCA),[3]; plasma,↓*
same,ESR,"AIA rats [4]; AIA rats, Silybin 100 mg/kg oral daily",34.35 ± 9.25 mm
same,ESR,"AIA rats [4]; AIA rats, Silybin 200 mg/kg oral daily",significantly (P<0.001) reduced
same,ESR,"AIA rats [4]; AIA rats, Silybin 200 mg/kg oral daily, listed as SB",28.09 ± 11.14 mm
same,arthritis score,AIA rats [4]; [6],7.60
same,paw volume,AIA rats [4]; [6],3.02 mL
same,"relative organ weight ratio (such as liver index, spleen index, kidney index, lung index)","AIA rats [4]; rat, in vivo",reversed changes

# Source: US20180289666A1, “FLAVONOLIGNANS FOR TREATMENT OF AUTOIMMUNE INFLAMMATORY DISEASES” (Macau University of Science and Technology, priority 2017, published 2018)
